US7189851B2, “Condensed heterocyclic compounds as calcitonin agonists” (SmithKline Beecham Corporation, priority 2002, dated 2007)

What was measured:
[1] = biological target: T1, human calcitonin-2 receptor (hCT2R) (Homo sapiens, UniProt P30988); assay: HCT2R CRE-luc reporter assay; type: cell-based; details: agonist activity; CHO-6CRE-luciferase cells co-transfected with hCT2R
T1 construct: expressed in transfected cells; host or cells: Chinese hamster ovary (CHO) cells co-transfected with a 6CRE-luciferase reporter; receptor cDNA cloned from the MCF7 cell line
T1 sequence (P30988 25-474): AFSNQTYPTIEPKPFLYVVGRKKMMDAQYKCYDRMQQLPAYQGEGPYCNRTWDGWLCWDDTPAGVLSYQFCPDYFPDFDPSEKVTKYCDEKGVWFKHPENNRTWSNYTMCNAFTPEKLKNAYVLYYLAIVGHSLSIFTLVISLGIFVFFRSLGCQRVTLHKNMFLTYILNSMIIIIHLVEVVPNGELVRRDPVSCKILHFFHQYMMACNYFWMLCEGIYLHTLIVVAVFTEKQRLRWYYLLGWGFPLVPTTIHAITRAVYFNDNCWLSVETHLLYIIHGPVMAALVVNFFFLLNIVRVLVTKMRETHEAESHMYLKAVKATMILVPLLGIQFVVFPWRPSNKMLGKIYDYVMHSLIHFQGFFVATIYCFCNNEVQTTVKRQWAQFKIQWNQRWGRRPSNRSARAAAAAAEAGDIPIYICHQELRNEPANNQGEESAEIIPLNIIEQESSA
Experimental: The compounds of the present invention elicit important and measurable pharmacological responses. As is to be expected, the efficacy of any compound will vary depending upon the particular assay and the particular compound tested.
All recombinant cell line human calcitonin receptor assays were carried out with the human receptor corresponding to GeneBank Accession Number X69920, [See: Molecular Pharmacology 46 (2):246–255, 1994, Cloning and characterization of an abundant subtype of the human calcitonin receptor] cloned from the MCF7 cell line (American Type Tissue Collection, Manassas, Va., USA, Catalog # HTB-22). Human calcitonin receptor (hCT2R) was cloned as a HindIII fragment into plasmid BS SKII. Chinese hamster ovary cells were co-transfected with a 6CRE-luciferase reporter system and hCTR2. HEK cells were transfected with hCTR2.
CHO-6CRE-luciferase cells with or without co-expressed hCTR2 were grown in suspension in commercially available cell culture medium supplemented with 2 mM L-glutamine and 5% fetal bovine serum (FBS). Sixteen hours before each assay, cells were collected and resuspended at 1,000,000 cells/ml in media without FBS. Cells were cultured in spinner flasks at 37° C. in an atmosphere of 5% CO2. At the time of the assay, cells were pelleted by centrifugation and resuspended in media without FBS at a concentration of 250,000 cells/ml. The cell suspension was pipetted into black 96-well microtiter plates (25,000 cells/well) containing test compounds. After a four-hour incubation at 37° C., media was aspirated, followed by addition of 50 microliters of LucLite and PBS (1:1) containing 1 mM CaCl2 and 1 mM MgCl2. The plates were sealed and incubated for 20 minutes in the dark. Luminescent responses were measured using a Packard TopCount.
Structure activity studies were performed on CHO-6CRE-luciferase cells with or without co-transfected hCT2R. Forty-eight hours before each assay, cells were removed with trypsin and plated in 96-well microtiter plates at a concentration of 25–100,000 cells/well. Sixteen hours before each assay, FBS-containing media was removed and replaced with media without FBS. Compounds were added and incubated for four hours at 37° C. After incubation, media was aspirated and 50 microliters of LucLite in PBS (1:1) containing 1 mM CaCl2 and 1 mM MgCl2 were added to each well. Plates were sealed and incubated for 20 minutes in the dark before quantification of luminescence on a Packard TopCount.
Concentration-response curves were calculated and potencies were reported as the concentration of compounds producing half-maximal responses (EC50) or the negative log of the concentration of compounds producing half-maximal responses (pEC50).

[2] = test system: Thyroid-parathyroidectomized (TPTX) rats; assay: Rat TPTX assay in vivo (PTH-induced elevation of serum calcium); details: 16 units/kg SC, TPTX rats
Text: Thyroid-parathyroidectomized (TPTX) rats were used to determine the effects of compounds on PTH-induced elevation of serum calcium in vivo. The thyroid and parathyroid glands of male CD rats were removed under anesthesia and subcutaneous pumps containing human parathyroid hormone (hPTH 1–34) were implanted two to five days after TPTX. […] PTH was delivered at a rate of 30 micrograms/kg/hour. PTH causes significant elevations of serum calcium in TPTX rats given no other treatments. Rats were treated with vehicle, test compounds at various doses or calcitonin 16 units/kg SC. […] Serurn calcium was measured at baseline and every two hours up to six hours. Averaged group responses at each time point were compared using Analysis of Variance (ANOVA).

Compound | EC50 [1] | suppression of PTH-induced hypercalcemia [2]
CCOC(=O)c1c(CCc2ccc(F)cc2)cc2c(c1-c1ccc(C(=O)NCc3ccco3)cc1)C(=O)N1CCC[C@@H]21 [Example 50, Ethyl (9bS)-8-[2-(4-flurophenyl)ethyl]-6-(4-{[(2-furylmethyl)amino]carbonyl}phenyl)-5oxo-2,3,5,9b-tetrahydro-1H-pyrrolo[2,1-α]isoindole-7-carboxylate] | ≥ 1 µM | 
CCOC(=O)c1c(Cc2ccsc2)nc2c(c1-c1ccc(C(=O)NCc3ccco3)cc1)C(=O)N1CCCC21 [Example 51, Ethyl (9aS)-4-(4-{[(2-furylmethyl)amino]carbonyl}phenyl)-5-oxo-2-(3-thienylmethyl)-7,8,9,9a-tetrahydro-5H-pyrido[2,3-α]pyrrolizine-3-carboxylate] | 0.1 to 1 µM | 
CCOC(=O)c1c(CCc2ccc(F)cc2)nc2c(c1-c1ccc(C(=O)N[C@@H]3CCc4ccccc43)cc1[N+](=O)[O-])C(=O)N1CCC[C@@H]21 [Example 53, Ethyl (9aS)-4-(4-{[(1R)-2,3-dihydro-1H-inden-1-ylamino]carbonyl}-2-nitrophenyl)-2-[2-(4-fluorophenyl)ethyl]-5-oxo-7,8,9,9a-tetrahydro-5H-pyrido[2,3-α]pyrrolizine-3-carboxylate] | 0.01 to 0.1 µM | 
O=C(N[C@@H]1CCc2ccccc21)c1ccc2c(c1)[nH]c(=O)c1c(Cc3ccc(F)cc3)nc3c(c12)C(=O)N1CCC[C@@H]31 [Example 58, (8bS)-N-[(1R)-2,3-dihydro-1H-inden-1-yl]-7-(4-fluorobenzyl)-6,13-dioxo-5,8b,9,10,11,13-hexahydro-6H-benzo[c]pyrroizino[2,1-f][2,7]naphthyridine-3-carboxamide] | 0.1 to 1 µM | 
O=C(N[C@@H]1CCc2ccccc21)c1ccc2c(c1)[nH]c(=O)c1c(CCc3ccc(F)cc3)nc3c(c12)C(=O)N1CCC[C@@H]31 [Example 59, (8bS)-N-[(1R)-2,3-dihydro-1H-inden-1-yl]-7-[2-(4-fluorophenyl)ethyl]-6,13-dioxo-5,8b,9,10,11,13-hexahydro-6H-benzo[c]pyrrolizino[2,1-f][2,7]naphthyridine-3-carboxamide] | ≤ 0.01 µM | 
Ethyl (9αS)-4-{4-[(benzylamino)carbonyl]phenyl}-5-oxo-2-{2-[4-(trifluoro-methyl)phenyl]ethyl}-9,9a-dihydro-5H-[1,3]oxazolo[3′,4′:1,2]pyrrolo[3,4-b]pyridine-3-carboxylate [Example 36] | 0.01 to 0.1 µM | 
calcitonin [reference compound] |  | maximal suppression

More lines, main results first:

EC50 [1] | Compound | suppression of PTH-induced hypercalcemia [2]
≥ 1 µM | CCOC(=O)c1c(CCc2ccc(F)cc2)cc2c(c1-c1ccc(C(=O)O)cc1)C(=O)N1CCC[C@@H]21 [Example 49, 4-{(9bS)-7-(ethoxycarbonyl)-8-[2-(4-fluorophenyl)ethyl]-5-oxo-2,3,5,9b-tetrahydro-1H-pyrrolo[2,1-α]isoindol-6-yl}benzoic acid] | 
0.01 to 0.1 µM | CCOC(=O)c1c(CCc2ccc(F)cc2)nc2c(c1-c1ccc(C(=O)N[C@@H](C)c3ccncc3)c(F)c1)C(=O)N1CCC[C@@H]21 [Example 52, Ethyl (9aS)-2-[2-(4-fluorophenyl)ethyl]-4-[3-fluoro-4-({[(1S)-1-(4-pyridinyl)ethyl]amino}carbonyl)phenyl]-5-oxo-7,8,9,9a-tetrahydro-5H-pyrido[2,3-α]pyrrolizine-3-carboxylate] | 
≥ 1 µM | CCOC(=O)c1c(Cc2ccc(F)cc2)nc2c(c1-c1cc(C(=O)NCCc3cccs3)cc(C(F)(F)F)c1)C(=O)N1CCC[C@@H]21 [Example 54, Ethyl (9aS)-2-(4-fluorobenzyl)-5-oxo-4-[3-({[2-(2-thienyl)ethyl]amino}carbonyl)-5-(trifluoromethyl)phenyl]-7,8,9,9a-tetrahydro-5H-pyrido[2,3-α]pyrrolizine-3-carboxylate] | 
0.01 to 0.1 µM | CCOC(=O)c1c(Cc2ccc(F)cc2)nc2c(c1-c1ccc(C(=O)NN3CCc4ccccc43)cc1)C(=O)N1CCC[C@@H]21 [Example 55, Ethyl (9aS)-4-{4-[(2,3-dihydro-1H-indol-1-ylamino)carbonyl]phenyl}-2-(4-fluorobenzyl)-5-oxo-7,8,9,9a-tetrahydro-5H-pyrido[2,3-α]pyrrolizine-3-carboxylate] | 
0.1 to 1 µM | CCOC(=O)c1c(CCc2ccc(F)cc2)nc2c(c1-c1cc(Br)cs1)C(=O)N1CCC[C@@H]21 [Example 56, Ethyl (9aS)-4-(4-bromo-2-thienyl)-2-[2-(4-fluorophenyl)ethyl]-5-oxo-7,8,9,9a-tetrahydro-5H-pyrido[2,3-α]pyrrolizine-3-carboxylate] | 
0.1 to 1 µM | CCOC(=O)C1=C(Cc2ccc(F)cc2)Nc2c(c(=O)n3n2CCC3)C1c1ccc(C(=O)N[C@@H]2CCc3ccccc32)cc1 (stereo partly drawn) [Example 60, Ethyl 4-(4-{[(1R)-2,3-dihydro-1H-inden-1-ylamino]carbonyl}phenyl)-2-(4-fluorobenzyl)-5-oxo-1,5,8,9-tetrahydro-4H,7H-pyrazolo[1′,2′:1,2]pyrazolo[3,4-b]pyridine-3-carboxylate] | 
0.01 to 0.1 µM | CCOC(=O)C1=C(CCc2ccc(C(F)(F)F)cc2)Nc2c(c(=O)n3n2CCC3)C1c1ccc(C(=O)N[C@@H]2CCc3ccccc32)cc1 (stereo partly drawn) [Example 61, Ethyl 4-(4-{[(1R)-2,3-dihydro-1H-inden-1-ylamino]carbonyl}phenyl)-5-oxo-2-{2-[4-(trifluoromethyl)phenyl]ethyl}-1,5,8,9-tetrahydro-4H,7H-pyrazolo[1′,2′:1,2]pyrazolo[3,4-b]pyridine-3-carboxylate] | 
0.01 to 0.1 µM | Ethyl (9aS)-4-(4-{[(2-furylmethyl)amino]carbonyl}phenyl)-5-oxo-2-[2-(3-pyridinyl)ethyl]-7,8,9,9a-tetrahydro-5H-pyrido[2,3-α]pyrrolizine-3-carboxylate [Example 33] | 
0.1 to 1 µM | Ethyl (9aS)-4-(4-{[(2-furylmethyl)amino]carbonyl}phenyl)-5-oxo-2-{2-[4-(trifluoromethyl)phenyl]ethyl}-7,8,9,9a-tetrahydro-5H-pyrido[2,3-α]pyrrolizine-3-carboxylate-N-oxide [Example 38] | 
≥ 1 µM | Ethyl(9aS)-4-[3-({[2-(2-furyl)ethyl]amino}carbonyl)phenyl]-5-oxo-2-{2-[4-(trifluoromethyl)phenyl]ethyl}-7,8,9,9a-tetrahydro-5H-pyrido[2,3-a]pyrrolizine-3-carboxylate [Example 13] | 
